Values of other authors as cited in patent publication US6579860B1, “Interleukin-6 production inhibitors” (Toray Industries, Inc., priority 1998, dated 2003).

test system: mouse macrophage cells; conditions: Pannanen N. et al., Pharmaceutical Research 12(6)

Row | SMILES | effect on cytokine production/release
1 | O=P(O)(O)C(Cl)(Cl)P(=O)(O)O [clodronate] | suppresses cytokine production
2 | CC(O)(P(=O)(O)O)P(=O)(O)O [etidronate] | does not have such an effect
3 | NCCC(O)(P(=O)(O)O)P(=O)(O)O [pamidronate] | enhances release of cytokine
